Experimental data reported in the supplement of paper PMC8671470.

Assays:
Conditions in all cases: 72 h
[1] = test system: MV4-11
How it was run: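 Fifteen myeloid leukaemia cell lines were seeded in RPMI 1640 at densities titrated to the linear growth range and placed in 384-well plates with acoustically pre-printed compounds at five tenfold doses from 1 to 10,000 nM, in duplicate. After 72 h at 37 °C with 5% CO2, luminescent ATP viability was normalised to vehicle and to a positive control at 10 µM, and curves were fitted with a four-parameter log-logistic model. The IC50 was obtained from these fits.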

[2] = test system: HL-60; test: cell viability (% survival relative to DMSO control); higher = less cytotoxic
How it was run: (§1)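 Area under the curve, where listed, was derived from four-parameter log-logistic fits with drc and PharmacoGx. These fits used CellTiter-Glo viability from HL-60 cells in RPMI 1640 with 10% FBS, normalised to DMSO wells and wells holding 10 μM proteasome inhibitor. The full library was rescreened on 384-well plates in duplicate at five tenfold concentrations, 1–10,000 nM, with DMSO or 100 nM of one of three metabolic inhibitors, for 72 h at 37 °C, 5% CO2.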

[3] = test system: BV-173; test: cell viability (% survival relative to DMSO control, bortezomib = 0%); higher = less cytotoxic
How it was run: (§2)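 Seeding density for each of the 10 AML and 5 CML cell lines was titrated to the linear growth range. Cells went into 384-well plates pre-printed in duplicate with compounds at 1, 10, 100, 1000 or 10000 nM and were held for 72 h at 37 °C with 5% CO2. CellTiter-Glo luminescence then provided the readout. Percent survival is expressed relative to vehicle at 100% and a 10 µM positive control at 0%, averaged over duplicates.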

[4] = test system: HEL; test: as above
How it was run: as §2

[5] = test system: HL-60; test: as above
How it was run: as §2

[6] = test system: K-562; test: as above
How it was run: as §2

[7] = test system: KCL-22; test: as above
How it was run: as §2

[8] = test system: KG-1; test: as above
How it was run: as §2

[9] = test system: KU-812; test: as above
How it was run: as §2

[10] = test system: LAMA-84; test: as above
How it was run: as §2

[11] = test system: ML-2; test: as above
How it was run: as §2

[12] = test system: MOLM-13; test: as above
How it was run: as §2

[13] = test system: MV4-11; test: as above
How it was run: as §2

[14] = test system: Mono-Mac-6; test: as above
How it was run: as §2

[15] = test system: NOMO-1; test: as above
How it was run: as §2

[16] = test system: SHI-1; test: as above
How it was run: as §2

[17] = test system: THP-1; test: as above
How it was run: as §2

[18] = test system: HL-60; test: area under dose-response curve (viability, 1 nM-10 uM) (fraction (0-1)); higher = more sensitive
How it was run: as §1

CC1Cc2ccccc2N1NC(=O)c1ccc(Cl)c(S(N)(=O)=O)c1 (stereo not given) [Indapamide]
Conditions	IC50 (cell viability) [µM]
[1]	> 10

cell viability [%], [2]
Conditions	0.001 µM	0.01 µM	0.1 µM	1 µM	10 µM
co-treatment: AZD3965 100 nM	103	104	99.4	103.1	95.9
co-treatment: DMSO vehicle	98.1	104	101	99.5	103.2
co-treatment: GSK2194069 100 nM	103.4	107.5	94.7	98.3	99.6
co-treatment: pictilisib 100 nM	100	112	97.14	92.8	98.4

Conditions	area under dose-response curve, co-treatment: AZD3965 100 nM	area under dose-response curve, co-treatment: DMSO vehicle	area under dose-response curve, co-treatment: GSK2194069 100 nM	area under dose-response curve, co-treatment: pictilisib 100 nM	cell viability, 1 nM [%]	cell viability, 10 nM [%]	cell viability, 100 nM [%]	cell viability, 1000 nM [%]	cell viability, 10000 nM [%]
[3]	–	–	–	–	116	93.9	95.3	99.7	91.9
[4]	–	–	–	–	107	112	101	105	103
[5]	–	–	–	–	87.7	95	81.6	93	102
[6]	–	–	–	–	112	97.3	120	100	102
[7]	–	–	–	–	89.3	105	77.6	102	105
[8]	–	–	–	–	86.7	105	101	97.3	101
[9]	–	–	–	–	89.8	111	95.8	104	89.7
[10]	–	–	–	–	92.2	111	98.1	94.3	91.3
[11]	–	–	–	–	94.1	98.2	97.5	93.8	100
[12]	–	–	–	–	100	93.3	96.5	100	86.1
[13]	–	–	–	–	111	98.4	102	97.8	99.4
[14]	–	–	–	–	99.6	112	112	110	90.9
[15]	–	–	–	–	98.2	103	101	101	102
[16]	–	–	–	–	92.5	93.8	113	102	98
[17]	–	–	–	–	93.5	105	93.2	95.4	97
[18]	< 0.0301	< 0.0301	< 0.0301	< 0.0301	–	–	–	–	–
